# Measured values published in US20170073371A1, “ANTIMICROBIAL PEPTIDES” (ROBERT BOSCH GESELLSCHAFT FÜR MEDIZINISCHE FORSCHUNG MBH, priority 2012, published 2017).
# Where no end group is shown, it is not given here.
# Assays:
# [1] = system: Bifidobacterium adolescentis; assay: Antimicrobial radial diffusion assay (inhibition zone diameter); type: cell-based; details: for antimicrobial activity (diameter of inhibition zone): FIG. 1, radial diffusion
# Protocol: (§1) The letters indicate the amino acids using the single-letter code. […] The diameter of the inhibition zones represents the antimicrobial activity; a diameter of 2.5 mm is the diameter of an empty punched well in an agar plate which contains only carrier fluid (negative control). The experiments were repeated at least three times, and the mean plus standard deviation is shown.
# (§2) Antimicrobial radial diffusion assays for anaerobic bacteria were carried out as described previously (see Schröder et al.: “Reduction of disulfide bonds unmasks potent antimicrobial activity of human beta-defensin 1”, Nature, 469: 419-423 (2011)). In brief, the bacteria were anaerobically cultured (Oxoid AnaeroGen”, England) for 24 hours at 37° C. on Columbia agar plates, then inoculated into liquid trypticase soy broth (TSB) medium and cultured again for 24 hours. The bacterial cultures were then washed and diluted to an optical density (OD620 nm)=0.1, of which 150 μl was used for the effectiveness assay. Incubation occurred under anaerobic conditions in 10 ml 10 mM sodium phosphate having a pH of 7.4 with 0.3 mg/ml TSB pwder and 1% (w/v) low-EEO agarose (agarose with very low EEO value)(Appli-Chem) with 0 or 2 mM dithiothreitol (DTT, Sigma Aldrich), with 1 μg synthetic, oxidized hBD-1 (Peptide Institute, Japan) or synthetic peptides, for three hours. An overcoating gel having 6% (w/v) TSB powder, 1% agarose, and 10 mM sodium phosphate buffer (pH 7.4 or 5.7), with or without DTT, was placed onto the plates. After incubation for 48 hours at 37° C. the diameters of the inhibition zones were measured. The experiments were repeated at least three times.
# Escherichia coli [2] = assay: as above; type: cell-based; details: FIG. 1b, 1c
# Protocol: as §1, §2
# E. coli K12 = assay: Radial diffusion assay, D- versus L-amino acid octapeptide (FIG. 3a); type: cell-based, Escherichia coli
# Protocol: Antimicrobial radial diffusion assays for anaerobic bacteria were carried out as described previously (see Schröder et al.: “Reduction of disulfide bonds unmasks potent antimicrobial activity of human beta-defensin 1”, Nature, 469: 419-423 (2011)). In brief, the bacteria were anaerobically cultured (Oxoid AnaeroGen”, England) for 24 hours at 37° C. on Columbia agar plates, then inoculated into liquid trypticase soy broth (TSB) medium and cultured again for 24 hours. The bacterial cultures were then washed and diluted to an optical density (OD620 nm)=0.1, of which 150 μl was used for the effectiveness assay. Incubation occurred under anaerobic conditions in 10 ml 10 mM sodium phosphate having a pH of 7.4 with 0.3 mg/ml TSB pwder and 1% (w/v) low-EEO agarose (agarose with very low EEO value)(Appli-Chem) with 0 or 2 mM dithiothreitol (DTT, Sigma Aldrich), with 1 μg synthetic, oxidized hBD-1 (Peptide Institute, Japan) or synthetic peptides, for three hours. An overcoating gel having 6% (w/v) TSB powder, 1% agarose, and 10 mM sodium phosphate buffer (pH 7.4 or 5.7), with or without DTT, was placed onto the plates. After incubation for 48 hours at 37° C. the diameters of the inhibition zones were measured. The experiments were repeated at least three times. […]
# [3] = system: (opportunistic) pathogenic microorganisms; assay: Flow cytometric antimicrobial assay (membrane depolarization), all tested pathogens; type: cell-based; details: 50 μg/ml; E. coli, S. aureus, C. albicans, B. fragilis; FIG. 2
# Protocol: (§3) The following peptides were investigated: modified octapeptide (SEQ ID NO. 4), wild type octapeptide (SEQ ID NO. 1), alanine-mutated octapeptide (SEQ ID NO. 7), and a heptapeptide (SEQ ID NO. 8) (each 50 μg/ml) were tested in a flow cytometric antimicrobial effectiveness assay against Escherichia coli, Staphylococcus aureus, Candida albicans, and Bacteroides fragilis. The letters once again indicate the respective amino acids in the one-letter code. The experiments were repeated twice in double batches, and the mean plus standard deviation is shown;
# (§4) Flow cytometric antimicrobial assays with which the membrane depolarization of the bacteria and fungi were measured were carried out as previously described (see Nuding et al., “A flow cytometric assay to monitor antimicrobial activity of defensins and cationic tissue extracts,” Journal of Microbiological Methods, 65: 335-380 (2006)).
# (§5) In brief, 1.5×10^6 cells per ml were incubated in 1:6-diluted Schaedler medium at 37° C. with peptides at a final volume of 50 μl. The defensins were dissolved in 0.01% acetic acid and were added to the bacterial/fungal suspensions at the final concentrations indicated. Bacterial or fungal suspensions that had been incubated with solvent (0.01% acetic acid) served here as controls for viability. After 90 minutes the suspensions were incubated for 10 minutes with 1 mg/ml of the membrane-potential-sensitive dye DiBAC4(3) ([bis-(1,3-dibutylbarbiturate)trimethine oxanol]) (Invitrogen, USA). The suspensions were centrifuged, and sediments resuspended in […] phosphate-buffered saline. The percentage of depolarized fluorescing bacteria or fungi in the suspension was determined using a FACSCalibur flow cytometer (Becton-Dickinson, USA) utilizing Cell Quest software (Becton-Dickinson). The experiments were repeated twice, each in duplicate.
# Candida albicans = assay: Flow cytometric antimicrobial assay (membrane depolarization); type: cell-based; details: 50 μg/ml; FIG. 2
# Protocol: as §3, §4, §5
# Staphylococcus aureus = assay: as above; type: cell-based; details: 50 μg/ml; FIG. 2
# Protocol: as §3, §4, §5
# Bacteroides fragilis = assay: as above; type: cell-based; details: 50 μg/ml; FIG. 2
# Protocol: as §3, §4, §5
# Escherichia coli [4] = assay: as above; type: cell-based; details: 50 μg/ml; FIG. 2
# Protocol: as §3, §4, §5
# [5] = Reversed-phase HPLC analysis of hydrophobicity; type: physicochemical; details: data not shown
# Protocol: For analysis by high performance liquid chromatography (HPLC), the octapeptides were mixed with 0.1% (v/v) trifluoracetic acid (TFA) and analyzed with an Agilent 1200 system (Agilent) and a Synergi reversed phase (RP) column (250×4.6 mm, 4 μm, Phenomenex, Germany).
# In further experiments a reversed-phase HPLC analysis was carried out in order to investigate the hydrophobicity of the tested peptides (data not shown).
# [6] = system: commensal bacteria of the human intestinal flora; assay: Antimicrobial radial diffusion assay of human beta-defensins at pH 7.4 or 5.7, with or without DTT; type: cell-based
# Protocol: as §2
# In the present case hBD-1 and its antimicrobial activity have been further investigated. For this, the antimicrobial activity of the three human beta-defensins hBD-1, -2, and -3 with respect to commensal bacteria of the human intestinal flora were tested under standard conditions (pH 7.4) and slightly acidic conditions (pH 5.7); under both conditions, reducing conditions were also tested by adding 2 mM of the chemical reducing agent dithiothreitol (DTT) to the growth medium.
# [7] = Schröder et al., Nature 469:419-423 (2011); cited from earlier work
Substance,antimicrobial activity (diameter of inhibition zone) [1],antimicrobial activity (diameter of inhibition zone) (Escherichia coli [2]),effectiveness (depolarized bacteria or fungi) [3],further results
"RGKAKACK [Cys6 exchanged, octapeptide with Cys6 exchanged for alanine]",activity was greatly decreased,increased the antimicrobial activity,–,–
"RGKAKCAK [Cys7 exchanged, octapeptide with Cys7 exchanged for alanine]",activity was greatly decreased,increased the antimicrobial activity,–,–
"RGKAKCCK (not fully specified (some residues); cysteine pairing not given here; also: termini modified in some versions, not given here)",–,–,–,activity compared with the peptide made up of L-amino acids ([1]; FIG. 3b): elevated activity; activity compared with the peptide made up of L-amino acids (E. coli K12): weaker activity
"RGKAKCCK [wild type octapeptide, octapeptide of the eight terminal amino acids of the carboxy terminus of hBD-1]",greater antimicrobial activity than the previously tested heptapeptide,also had antimicrobial activity,only marginal in most cases,–
ac-RGKAKCCK-NH2 (Ac-RGKAKCCK-NH2; cysteine pairing not given here) [modified octapeptide],rose sharply,did not differ significantly by comparison with the wild type peptide,–,activity (depolarized fungi) (Candida albicans): outstanding activity; activity (depolarized bacteria) (Staphylococcus aureus): outstanding activity; activity (depolarized bacteria) (Bacteroides fragilis): but not with respect to Escherichia coli and Bacteroides fragilis; activity (depolarized bacteria) (Escherichia coli [4]): but not with respect to Escherichia coli and Bacteroides fragilis; hydrophobicity (order of elution from RP column) [5]: highest hydrophobicity
alanine-mutated octapeptide: alanine-mutated octapeptide; both cysteines exchanged (RGKAKAAK) [reference compound],brought activity to a complete standstill,almost entirely shut down antimicrobial activity,only marginal in most cases,–
"hBD-1: human beta-defensin 1, obtained from Peptide Institute Inc. (DHYNCVSSGGQCLYSACPIFTKIQGTCYRGKAKCCK; disulfide (positions not given here); UniProt P60022 33-68, looked up)",–,–,–,"activation of antimicrobial activity by reduction ([6]; pH 5.7, 2 mM DTT, data not shown): activation was not observed; antimicrobial activity, effect of reduction ([6]; reducing conditions, 2 mM dithiothreitol (DTT) in growth medium, data not shown): became active by reduction; antimicrobial activity ([6]; standard conditions (pH 7.4), data not shown): largely inactive; antimicrobial activity under reducing conditions [7]: elevated antimicrobial activity"
"hBD-3: human beta-defensin, obtained from Peptide Institute Inc. (GIINTLQKYYCRVRGGRCAVLSCLPKEEQIGKCSTRGRKCCRRKK; ends and bridges not checked; cysteine pairing not given here; UniProt P81534 23-67, looked up)",–,–,–,"antimicrobial activity compared with the other two defensins ([6]; in most cases, tested commensals): strongest activity"
wild type heptapeptide: heptapeptide that represents the seven terminal amino acids of hBD-1 (GKAKCCK) [reference compound],highest activity,–,only marginal in most cases,–
